Key:
naive-hESCs/hiPSCs = assay: Signaling dependence of pluripotent cell lines, naive-hESC/hiPSC; format: cell-based, human; settings: grown in PD/CH/FK/LIF, inhibitor or factor added
Experimental: (§1) Pluripotent cells were equally divided and plated on feeders in the indicated growth medium in which these cell lines are normally maintained, and 36 hours later the wells were supplemented with the indicated inhibitors or growth factors. After seven days, wells were fixed and stained to determine the relative percentage of colonies positive for pluripotency markers. SSEA1 staining was used for mouse stem cells. Colony formation was normalized to an internal control “Growth medium” without inhibitors (first left column). Normalized percentages lower than 5% are defined as “sensitivity” to the presence of the supplemented inhibitor. (B-C) Western blot analysis of total ERK1/2, phosphorylated ERK1/2 (pERK1/2) and phosphorylated Stat3 (pStat3). WIBR3 hESC and C1 hiPSC were grown in traditional bFGF/Activin containing media while naive-hESC/hiPSCs were grown in N2B27 PD/CH/FOR/LIF. ‘2×LIF’ indicates two fold increase in LIF concentration. (D) LIF/Stat3 is required for stabilization of naive-hESC/hiPSCs. Naïve NOD mESCs, WIBR3.5 and WIBR3.1 naive-hESC, and C1 naïve-hiPSCs were electroporated with a pBRY-CAGGS-flox-DsRedT4-IP control plasmid, a plasmid encoding a dominant negative Stat3 Y705F mutant (Stat3-DN), or a plasmid Stat3-C constitutively active mutant (pBRY-Stat3-CA). Cells were passaged three times in the presence of puromycin. After 20 days, colonies positive for pluripotency markers were counted and normalized to colonies from cells electroporated with empty vector (n=3 replicates for each condition). (E) RT-PCR expression of early germ cell markers in the presence or absence of BMP4/7/8 cytokines for 7 days. (F) Representative FISH analysis for XIST RNA (red) and Cot1 nuclear RNA (green). Pri-WIBR3.2 cell line was analyzed after passaging in conventional bFGF/serum-containing human ESC growth conditions. Numbers indicate average percentage of XIST positive nuclei counted.
(§2) Small molecules and cytokines were purchased from Tocris, Calbiochem or Sigma, and were supplemented as indicated at the following final concentration: JAK inhibitor (JAKi, 6 μM), Kenpaullone (KP, 5 μM), PD0325901 (PD, 1 μM); CHIR99021 (CH, […]), Forskolin (FK, 10 μM), FGF4-Receptor inhibitors PD173074 (0.1 μM) and SU5401 (2 μM); TGFβ/ALK inhibitors A83-01 (1 μM), RepSox (1 μM), ALK inhibitor (ALKi—SB431542, 2 μM); AICAR (0.5 mM); BixO1294 (1 μM); BayK8644 (1 μM); recombinant human BMP4 (10 ng/ml), recombinant human IL-6 (10 ng/ml), recombinant human TGFβ (500 ng/ml), Media with inhibitors was routinely replaced every 48 hours to sustain activity of compounds.

hESCs = assay: Signaling dependence of pluripotent cell lines, conventional hESCs; format: cell-based, human; settings: normal growth medium, inhibitor or factor added
Experimental: Pluripotent cells were equally divided and plated on feeders in the indicated growth medium in which these cell lines are normally maintained, and 36 hours later the wells were supplemented with the indicated inhibitors or growth factors. After seven days, wells were fixed and stained to determine the relative percentage of colonies positive for pluripotency markers. SSEA1 staining was used for mouse stem cells. Colony formation was normalized to an internal control “Growth medium” without inhibitors (first left column). […] (B-C) Western blot analysis of total ERK1/2, phosphorylated ERK1/2 (pERK1/2) and phosphorylated Stat3 (pStat3). WIBR3 hESC and C1 hiPSC were grown in traditional bFGF/Activin containing media while naive-hESC/hiPSCs were grown in N2B27 PD/CH/FOR/LIF. ‘2×LIF’ indicates two fold increase in LIF concentration. […] Cells were passaged three times in the presence of puromycin. […] (E) RT-PCR expression of early germ cell markers in the presence or absence of BMP4/7/8 cytokines for 7 days. (F) Representative FISH analysis for XIST RNA (red) and Cot1 nuclear RNA (green). Pri-WIBR3.2 cell line was analyzed after passaging in conventional bFGF/serum-containing human ESC growth conditions.

mEpiSCs = assay: Signaling dependence of pluripotent cell lines, mEpiSCs; format: cell-based, mouse; settings: normal growth medium, inhibitor or factor added
Experimental: as §1, §2

mESCs = assay: Signaling dependence of pluripotent cell lines, mESCs; format: cell-based, mouse; settings: normal growth medium, inhibitor or factor added
Experimental: Pluripotent cells were equally divided and plated on feeders in the indicated growth medium in which these cell lines are normally maintained, and 36 hours later the wells were supplemented with the indicated inhibitors or growth factors. After seven days, wells were fixed and stained to determine the relative percentage of colonies positive for pluripotency markers. SSEA1 staining was used for mouse stem cells. Colony formation was normalized to an internal control “Growth medium” without inhibitors (first left column). Normalized percentages lower than 5% are defined as “sensitivity” to the presence of the supplemented inhibitor. (B-C) Western blot analysis of total ERK1/2, phosphorylated ERK1/2 (pERK1/2) and phosphorylated Stat3 (pStat3). WIBR3 hESC and C1 hiPSC were grown in traditional bFGF/Activin containing media while naive-hESC/hiPSCs were grown in N2B27 PD/CH/FOR/LIF. ‘2×LIF’ indicates two fold increase in LIF concentration. (D) LIF/Stat3 is required for stabilization of naive-hESC/hiPSCs. Naïve NOD mESCs, WIBR3.5 and WIBR3.1 naive-hESC, and C1 naïve-hiPSCs were electroporated with a pBRY-CAGGS-flox-DsRedT4-IP control plasmid, a plasmid encoding a dominant negative Stat3 Y705F mutant (Stat3-DN), or a plasmid Stat3-C constitutively active mutant (pBRY-Stat3-CA). Cells were passaged three times in the presence of puromycin. After 20 days, colonies positive for pluripotency markers were counted and normalized to colonies from cells electroporated with empty vector (n=3 replicates for each condition). (E) RT-PCR expression of early germ cell markers in the presence or absence of BMP4/7/8 cytokines for 7 days. (F) Representative FISH analysis for XIST RNA (red) and Cot1 nuclear RNA (green). Pri-WIBR3.2 cell line was analyzed after passaging in conventional bFGF/serum-containing human ESC growth conditions. Numbers indicate average percentage of XIST positive nuclei counted. […]

NOD-iPS cells = assay: Dox-independent propagation of Dox-dependent NOD-iPS cells in supplemented mESM; format: cell-based, mouse (NOD); settings: mESM lacking Dox
Text: FIGS. 4(A)-4(H) illustrate generation of genetically unmodified germline competent NOD ES cells. (A) Experimental outline for derivation of iPS lines that grow in the presence of small molecules and in the absence of Dox. Representative images of NOD iPS lines growing in mESM supplemented with the indicated small molecules or growth factors. (B) Single-cell cloning efficiency of NOD iPS cells in different growth conditions. WT or NOD-iPS cells grown in mESM and KP were sorted in 96 well plates and cultured in mESM supplemented with small molecules. The number of wells containing Nanog+ colonies was counted after 6 days. Efficiencies were normalized to that of C57B6/129F1-iPS cells (“permissive” controls) plated in mESM and defined as 100%. SD for average efficiencies from 2 experiments are shown. Student test P value compares KP/CH to PD/CH mESM conditions for NOD iPS cells. (C) Expansion of day E3.5 ICM derived NOD ES cells in the presence of KP, KP/CH or PD/CH and derivation of stable ES lines. Images of initial colonies observed at passage 2 after embryo dissociation are shown together with representative images at later passages. (D) Karyotype of NOD ES lines. (E) Immunostaining of NOD ES lines for pluripotency markers. Inhibitors used during cell line derivation and propagation are indicated. (F) Chimerism in adult mice generated from the indicated cell lines is evident by the presence of agouti (brown) and albino coat color originating from the NOD background. […] (G) Real-Time PCR analysis for endogenous expressed Oct4, c-Myc and Klf4 genes in NOD iPS and ES cells grown in the indicated conditions. Relative expression levels are normalized to levels detected in control 129 ES cells. (H) Southern analysis indicating correct targeting of the endogenous Nanog locus in NOD ES cells with Nanog-GFP knock-in targeting construct.
Small molecules have been identified to replace some of the reprogramming factors in iPS derivation (Huangfu et al., 2008; Shi et al., 2008). […]

C1.2 hiPSCs = assay: Screen for factors stabilizing C1 hiPSCs upon DOX withdrawal; format: cell-based, human; settings: C1.2 hiPSCs without DOX
Experimental: FIGS. 9(A)-9(D) show the in vitro stabilization of naïve human pluripotent stem cells. […] C1 cells were plated on feeders in N2B27 media with the indicated factors. p-values using student's t-test indicates significant change in comparison to cells grown in DOX/PD/CH/LIF conditions, which were defined as a control (100% survival). (B) Scheme for reverting hESCs to generate “naive-hESCs”. (C) Representative images of WIBR3 hESCs at different stages of the reversion process in PD/CH/LIF/FK (P indicates passage number). (D) Representative images of naive-WIBR3.5 hESC line, derived by plating WIBR3 hESCs in PD/CH/FK/LIF medium without transfection of exogenous factors. Magnifications of captured images are indicated. Naïve human pluripotent cells were grown in serum-free N2B27 based media. […] Throughout the manuscript, indicated passage numbers of naïve-hiPSC/hESCs indicates number of passages counted after induction of the naïve state. […]

Row | Compound | effect on pluripotency of naive-hESCs/hiPSCs (naive-hESCs/hiPSCs) | effect on pluripotency of conventional hESCs (hESCs) | effect on pluripotency of mEpiSCs (mEpiSCs) | effect on pluripotency of mESCs (mESCs) | Dox-independent growth of pluripotent NOD-iPS cells (NOD-iPS cells) | role in the 13i+LIF cocktail on removing one inhibitor at a time (C1.2 hiPSCs)
1 | Cc1cccc(-c2nn(C(=S)Nc3ccccc3)cc2-c2ccnc3ccccc23)n1 [A83-01] | maintained their pluripotent state | rapidly differentiated | rapidly differentiated | maintained their pluripotent state |  | 
2 | Cc1c[nH]c(-c2cnc(NCCNc3ccc(C#N)cn3)nc2-c2ccc(Cl)cc2Cl)n1 [CHIR99021] |  |  |  |  | supported Dox-independent growth | crucial components
3 | CCN(CC)CCCCNc1ncc2cc(-c3cc(OC)cc(OC)c3)c(NC(=O)NC(C)(C)C)nc2n1 [PD173074] | but not of naive-hESCs/hiPSCs or mESCs | resulted in the differentiation | resulted in the differentiation |  |  | 
4 | O=C(NOC[C@H](O)CO)c1ccc(F)c(F)c1Nc1ccc(I)cc1F [PD] |  | could not be propagated |  |  |  | crucial components
5 | TGFβ | differentiated |  |  | differentiated |  | 
6 | Wnt3a |  |  |  |  | supported Dox-independent growth | 
